Results published in the supplement of paper PMC10307832.

How the values were obtained:
Experiment in all cases: relative viability (nuclei count vs DMSO), 5 days (fraction); higher = more cells survive
[1] = system: BEN
Outline: (§1)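 Relative viability equals treated-well nuclei counts divided by vehicle-well nuclei counts. Counts came from 4× images of lung cancer cell lines grown in 1536-well plates for 5 days after pin-tool dosing on the day after seeding. Dosing used one drug alone or a fixed anchor-drug dose plus five library-drug doses (not always all listed) in √10 steps, and values are medians of duplicate plates.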

[2] = system: NCI-H727
Outline: as §1

[3] = system: NCI-H2405
Outline: as §1

[4] = system: NCI-H322M
Outline: as §1

[5] = system: NCI-H3122
Outline: as §1

[6] = system: NCI-H1355
Outline: as §1

[7] = system: RERF-LC-KJ
Outline: as §1

[8] = system: SK-LU-1
Outline: as §1

[9] = system: NCI-H2023
Outline: as §1

[10] = system: HOP-62
Outline: as §1

[11] = system: NCI-H2087
Outline: as §1

[12] = system: NCI-H1793
Outline: as §1

[13] = system: LCLC-97TM1
Outline: as §1

[14] = system: CAL-12T
Outline: as §1

[15] = system: NCI-H1395
Outline: as §1

[16] = system: LXF-289
Outline: as §1

[17] = system: HCC-827
Outline: as §1

[18] = system: HCC-44
Outline: as §1

[19] = system: NCI-H1437
Outline: as §1

[20] = system: NCI-H647
Outline: as §1

[21] = system: NCI-H2228
Outline: as §1

[22] = system: NCI-H1650
Outline: as §1

[23] = system: LCLC-103H
Outline: as §1

[24] = system: 201T
Outline: as §1

In the case of COc1cc(N2CCC(C(N)=O)CC2)ccc1Nc1nc(N)c(Cl)c(Nc2ccccc2S(=O)(=O)C(C)C)n1 [HG-5-88-01] + CC(=O)c1c(C)c2cnc(Nc3ccc(N4CCNCC4)cn3)nc2n(C2CCCC2)c1=O [Palbociclib] (partner 0.5 µM), the relative viability ([1]; first compound 0.04 µM) is reported as 0.451, the relative viability ([1]; first compound 0.1265 µM) is reported as 0.461 and the relative viability ([1]; first compound 0.4 µM) is reported as 0.409. For the same molecule, the relative viability ([1]; first compound 1.265 µM) was 0.465, the relative viability ([1]; first compound 4 µM) was 0.411 and the relative viability ([2]; first compound 0.04 µM) was 0.677. For the same molecule, the relative viability ([2]; first compound 0.1265 µM) was 0.629, the relative viability ([2]; first compound 0.4 µM) was 0.66 and the relative viability ([2]; first compound 4 µM) was 0.61. For the same molecule, the relative viability ([3]; first compound 0.04 µM) was 0.515, the relative viability ([3]; first compound 0.1265 µM) was 0.523 and the relative viability ([3]; first compound 0.4 µM) was 0.528. It also gave a relative viability ([3]; first compound 1.265 µM) of 0.348, a relative viability ([3]; first compound 4 µM) of 0.462 and a relative viability ([4]; first compound 0.04 µM) of 0.532. It also gave a relative viability ([4]; first compound 0.1265 µM) of 0.492, a relative viability ([4]; first compound 0.4 µM) of 0.477 and a relative viability ([4]; first compound 1.265 µM) of 0.337. For the same molecule, the relative viability ([4]; first compound 4 µM) was 0.443, the relative viability ([5]; first compound 0.04 µM) was 0.161 and the relative viability ([5]; first compound 0.1265 µM) was 0.138. The relative viability ([5]; first compound 0.4 µM) was 0.11, the relative viability ([5]; first compound 1.265 µM) was 0.111 and the relative viability ([5]; first compound 4 µM) was 0.0988. For the same molecule, the relative viability ([6]; first compound 0.04 µM) was 0.4, the relative viability ([6]; first compound 0.1265 µM) was 0.394 and the relative viability ([6]; first compound 0.4 µM) was 0.426. The relative viability ([6]; first compound 1.265 µM) was 0.338, the relative viability ([6]; first compound 4 µM) was 0.362 and the relative viability ([7]; first compound 0.04 µM) was 1.07. It also gave a relative viability ([7]; first compound 0.1265 µM) of 1.14, a relative viability ([7]; first compound 0.4 µM) of 1.08 and a relative viability ([7]; first compound 1.265 µM) of 0.908. The relative viability ([7]; first compound 4 µM) was 0.656, the relative viability ([8]; first compound 0.04 µM) was 0.363 and the relative viability ([8]; first compound 0.1265 µM) was 0.422. It also gave a relative viability ([8]; first compound 0.4 µM) of 0.505, a relative viability ([8]; first compound 1.265 µM) of 0.329 and a relative viability ([8]; first compound 4 µM) of 0.332. For the same molecule, the relative viability ([9]; first compound 0.04 µM) was 0.343, the relative viability ([9]; first compound 0.1265 µM) was 0.355 and the relative viability ([9]; first compound 0.4 µM) was 0.287. It also gave a relative viability ([9]; first compound 1.265 µM) of 0.259, a relative viability ([9]; first compound 4 µM) of 0.212 and a relative viability ([10]; first compound 0.04 µM) of 0.428. It also gave a relative viability ([10]; first compound 0.1265 µM) of 0.54, a relative viability ([10]; first compound 0.4 µM) of 0.456 and a relative viability ([10]; first compound 1.265 µM) of 0.501. For the same molecule, the relative viability ([10]; first compound 4 µM) was 0.608, the relative viability ([11]; first compound 0.04 µM) was 0.242 and the relative viability ([11]; first compound 0.1265 µM) was 0.246. It also gave a relative viability ([11]; first compound 0.4 µM) of 0.219, a relative viability ([11]; first compound 1.265 µM) of 0.207 and a relative viability ([11]; first compound 4 µM) of 0.244. For the same molecule, the relative viability ([12]; first compound 0.04 µM) was 0.301, the relative viability ([12]; first compound 0.1265 µM) was 0.309 and the relative viability ([12]; first compound 0.4 µM) was 0.299. For the same molecule, the relative viability ([12]; first compound 1.265 µM) was 0.24, the relative viability ([12]; first compound 4 µM) was 0.33 and the relative viability ([13]; first compound 0.04 µM) was 0.214. The relative viability ([13]; first compound 0.1265 µM) was 0.198, the relative viability ([13]; first compound 0.4 µM) was 0.197 and the relative viability ([13]; first compound 1.265 µM) was 0.194. It also gave a relative viability ([13]; first compound 4 µM) of 0.118, a relative viability ([14]; first compound 0.04 µM) of 0.509 and a relative viability ([14]; first compound 0.1265 µM) of 0.552. It also gave a relative viability ([14]; first compound 0.4 µM) of 0.405, a relative viability ([14]; first compound 1.265 µM) of 0.214 and a relative viability ([14]; first compound 4 µM) of 0.211. For the same molecule, the relative viability ([15]; first compound 0.04 µM) was 0.593, the relative viability ([15]; first compound 0.1265 µM) was 0.754 and the relative viability ([15]; first compound 0.4 µM) was 0.613. It also gave a relative viability ([15]; first compound 1.265 µM) of 0.474, a relative viability ([15]; first compound 4 µM) of 0.664 and a relative viability ([16]; first compound 0.04 µM) of 0.583. The relative viability ([16]; first compound 0.1265 µM) was 0.628, the relative viability ([16]; first compound 0.4 µM) was 0.572 and the relative viability ([16]; first compound 1.265 µM) was 0.59. The relative viability ([16]; first compound 4 µM) was 0.636, the relative viability ([17]; first compound 0.04 µM) was 0.583 and the relative viability ([17]; first compound 0.1265 µM) was 0.459. The relative viability ([17]; first compound 0.4 µM) was 0.425, the relative viability ([17]; first compound 1.265 µM) was 0.197 and the relative viability ([17]; first compound 4 µM) was 0.33. It also gave a relative viability ([18]; first compound 0.04 µM) of 0.983, a relative viability ([18]; first compound 0.1265 µM) of 0.957 and a relative viability ([18]; first compound 0.4 µM) of 0.864. It also gave a relative viability ([18]; first compound 1.265 µM) of 0.954, a relative viability ([18]; first compound 4 µM) of 0.943 and a relative viability ([19]; first compound 0.04 µM) of 0.372. For the same molecule, the relative viability ([19]; first compound 0.1265 µM) was 0.299, the relative viability ([19]; first compound 0.4 µM) was 0.271 and the relative viability ([19]; first compound 1.265 µM) was 0.28. For the same molecule, the relative viability ([19]; first compound 4 µM) was 0.243, the relative viability ([20]; first compound 0.04 µM) was 0.388 and the relative viability ([20]; first compound 0.1265 µM) was 0.423. The relative viability ([20]; first compound 1.265 µM) was 0.444, the relative viability ([20]; first compound 4 µM) was 0.494 and the relative viability ([21]; first compound 0.04 µM) was 0.388. It also gave a relative viability ([21]; first compound 0.1265 µM) of 0.388, a relative viability ([21]; first compound 0.4 µM) of 0.319 and a relative viability ([21]; first compound 1.265 µM) of 0.247. For the same molecule, the relative viability ([21]; first compound 4 µM) was 0.231, the relative viability ([22]; first compound 0.04 µM) was 0.342 and the relative viability ([22]; first compound 0.1265 µM) was 0.391. It also gave a relative viability ([22]; first compound 0.4 µM) of 0.327, a relative viability ([22]; first compound 1.265 µM) of 0.298 and a relative viability ([22]; first compound 4 µM) of 0.223. It also gave a relative viability ([23]; first compound 0.04 µM) of 0.48, a relative viability ([23]; first compound 0.1265 µM) of 0.48 and a relative viability ([23]; first compound 0.4 µM) of 0.443. The relative viability ([23]; first compound 1.265 µM) was 0.504, the relative viability ([23]; first compound 4 µM) was 0.445 and the relative viability ([24]; first compound 0.04 µM) was 0.368. The relative viability ([24]; first compound 0.1265 µM) was 0.343, the relative viability ([24]; first compound 1.265 µM) was 0.347 and the relative viability ([24]; first compound 4 µM) was 0.36.
